Where “and” joins values, the source holds several entries; their conditions need not be identical. Equal values may be shown once. Read-outs that look alike come from different tables or passages of the source.
What was measured:
[1] = target: T1, recombinant human active p38α protein, MK2 and Wee1 (Homo sapiens, UniProt Q16539); assay: p38α–Wee1 kinase assay (western blot); assay type: biochemical; details: 1 µM
T1 construct: purchased Abcam (p38α, MK2); Novus Biologicals (Wee1) ab271647; ab79910; H00007465-P01
Description: Briefly, 200 ng of corresponding proteins were preincubated with 1 µM 2015 or DMSO in a kinase assay buffer (Abcam, ab189135; total volume, 100 µL) for 30 min at 37 °C. Kinase activity was induced with 20 µM ATP. Following a 30-min incubation at 37 °C, the reaction was stopped by protein inactivation (95 °C, 5 min in Laemmli buffer). The antibodies and dilutions for immunoblotting are listed in the Nature Portfolio Reporting Summary.

[2] = cell viability in healthy human colon organoids SCC311; assay type: cell-based; details: female, human, ED Fig. 10f, replicates
Description: (§1) Primary tumor material was chopped, washed in ice-cold medium and transferred into basic medium (Supplementary Table 17), supplemented with 2.5 mg ml^−1 collagenase II (Thermo Fisher Scientific), 2.5 mg ml^−1 collagenase XI (Sigma-Aldrich), 1 mg ml^−1 Dispase II (Sigma-Aldrich), 100 µg ml^−1 DNase I and 10.5 µM Y-27632 dihydrochloride (Invitrogen). Tumor digestion was performed at 37 °C and stopped by adding medium containing 10% FBS. The mixture was centrifuged for 5 min at 300g. Red blood cells were removed with ACK lysing buffer (Thermo Fisher Scientific; 5 min at room temperature) and the pellet was resuspended in medium. Approximately 1,000 cells were resuspended and plated in 50 µl of Cultrex RGF BME, type 2 (R&D Systems). The ascites material was pelleted by centrifugation at 300g and washed three times with ice-cold PBS. Human CRC organoids were cultured in human CRC medium (Supplementary Table 17) at 37 °C and 7% CO2. Within the first week, the medium was supplemented with 10.5 µM Y-27632 dihydrochloride (Invitrogen). The human colon organoids (SCC311 and SCC321) were purchased from Sigma-Aldrich and cultured in human colon medium (Supplementary Table 17) at 37 °C and 7% CO2. They were derived from participants with the following sex and age: […].
(§2) For in vitro treatment studies, organoids were mechanically dissociated and digested using TrypLE supplemented with 100 µg ml^−1 DNaseI and 10.5 µM Y-27632 dihydrochloride (Invitrogen) at 37 °C. A total of 1,000–2,000 single cells were plated per well in white 96-well plates (Greiner) in culture medium containing 10% GFR Matrigel or Cultrex BME. The treatment with doxycycline (5 µg ml^−1), pharmacological inhibitors or corresponding volumes of DMSO was started 24 h after plating. Doxycycline was obtained from Sigma-Aldrich. […] Cell viability was measured by means of CellTiter-Glo 3D or CellTiter-Glo 2.0 reagent (Promega) according to the manufacturers’ instructions and the Infinite M Plex reader (Tecan, i-control version 3.9.1 software). Results were normalized to vehicle (DMSO) or to shNC. For cell-doubling assays, the cell number was quantified at the corresponding time points using Guava EasyCyte flow cytometer (Luminex, CytoSoft v5.2 software).

[3] = test system: SCC311 human colon organoids; assay: as above; assay type: cell-based; details: for Cell viability (%): ED Fig. 10f, replicates
Description: as §1, §2

[4] = test system: SCC321 human colon organoids; assay: cell viability in healthy human colon organoids SCC321; assay type: cell-based; details: for Cell viability (%): ED Fig. 10g, replicates
Description: as §1, §2

[5] = target: T2, 340 wild-type kinases (Homo sapiens, UniProt P17612); assay: selectivity profiling in a panel of 340 wild-type kinases (Reaction Biology Europe); assay type: binding
T2 construct: purchased Reaction Biology Europe

[6] = target: T3, 340 wild-type kinases (Homo sapiens, UniProt P37173); assay: as above; assay type: binding
T3 construct: purchased Reaction Biology Europe

[7] = target: T4, 340 wild-type kinases (Homo sapiens, UniProt P49674); assay: as above; assay type: binding
T4 construct: purchased Reaction Biology Europe

[8] = target: T5, 340 wild-type kinases (Homo sapiens, UniProt P51617); assay: as above; assay type: binding
T5 construct: purchased Reaction Biology Europe

[9] = target: T6, 340 wild-type kinases (Homo sapiens, UniProt Q05513); assay: as above; assay type: binding; details: PKMzeta, read-out: residual activity
T6 construct: purchased Reaction Biology Europe

[10] = target: T7, 340 wild-type kinases (Homo sapiens, UniProt Q13188); assay: as above; assay type: binding
T7 construct: purchased Reaction Biology Europe
T7 sequence (Q13188 1-491): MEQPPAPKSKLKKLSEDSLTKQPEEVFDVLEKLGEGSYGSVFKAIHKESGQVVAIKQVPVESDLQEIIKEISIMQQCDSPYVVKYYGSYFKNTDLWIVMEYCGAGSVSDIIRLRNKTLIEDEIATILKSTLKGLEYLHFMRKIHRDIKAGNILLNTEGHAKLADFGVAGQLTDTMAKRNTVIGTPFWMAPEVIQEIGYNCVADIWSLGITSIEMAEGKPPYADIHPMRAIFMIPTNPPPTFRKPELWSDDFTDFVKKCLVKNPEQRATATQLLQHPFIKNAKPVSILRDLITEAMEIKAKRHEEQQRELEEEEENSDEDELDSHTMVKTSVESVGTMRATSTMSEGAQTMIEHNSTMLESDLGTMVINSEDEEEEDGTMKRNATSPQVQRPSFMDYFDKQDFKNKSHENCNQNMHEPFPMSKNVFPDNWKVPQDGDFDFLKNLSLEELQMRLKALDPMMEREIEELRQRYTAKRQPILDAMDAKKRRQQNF

[11] = target: T8, 340 wild-type kinases (Homo sapiens, UniProt Q9H3Y6); assay: as above; assay type: binding
T8 construct: purchased Reaction Biology Europe
T8 sequence (Q9H3Y6 whole entry): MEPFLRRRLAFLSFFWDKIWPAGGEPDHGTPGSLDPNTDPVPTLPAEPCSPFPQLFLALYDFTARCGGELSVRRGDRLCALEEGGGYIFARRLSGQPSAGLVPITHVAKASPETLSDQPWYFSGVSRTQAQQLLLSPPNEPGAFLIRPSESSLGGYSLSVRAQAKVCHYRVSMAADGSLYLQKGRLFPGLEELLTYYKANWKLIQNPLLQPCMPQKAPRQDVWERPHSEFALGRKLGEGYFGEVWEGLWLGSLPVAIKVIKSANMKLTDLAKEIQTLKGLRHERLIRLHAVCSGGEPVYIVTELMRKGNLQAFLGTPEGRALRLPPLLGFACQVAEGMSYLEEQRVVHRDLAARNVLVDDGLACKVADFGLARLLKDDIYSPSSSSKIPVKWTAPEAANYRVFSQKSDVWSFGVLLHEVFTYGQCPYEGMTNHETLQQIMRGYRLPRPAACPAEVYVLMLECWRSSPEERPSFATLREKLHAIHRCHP

T3 sequence (P37173 23-567): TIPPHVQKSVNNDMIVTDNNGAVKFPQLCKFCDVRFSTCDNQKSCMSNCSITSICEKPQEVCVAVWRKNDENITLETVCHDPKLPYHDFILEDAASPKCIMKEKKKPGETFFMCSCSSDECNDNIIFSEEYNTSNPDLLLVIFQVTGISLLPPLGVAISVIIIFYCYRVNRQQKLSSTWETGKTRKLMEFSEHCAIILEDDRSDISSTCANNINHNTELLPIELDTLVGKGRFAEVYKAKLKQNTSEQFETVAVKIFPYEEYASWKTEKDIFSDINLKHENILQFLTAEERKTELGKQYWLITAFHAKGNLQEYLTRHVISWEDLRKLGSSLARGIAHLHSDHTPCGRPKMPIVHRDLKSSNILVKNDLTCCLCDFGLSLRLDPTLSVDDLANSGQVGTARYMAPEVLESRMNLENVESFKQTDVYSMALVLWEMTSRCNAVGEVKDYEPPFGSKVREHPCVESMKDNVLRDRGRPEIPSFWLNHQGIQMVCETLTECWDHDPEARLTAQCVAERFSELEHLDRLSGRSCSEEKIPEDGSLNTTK
T5 sequence (P51617 whole entry): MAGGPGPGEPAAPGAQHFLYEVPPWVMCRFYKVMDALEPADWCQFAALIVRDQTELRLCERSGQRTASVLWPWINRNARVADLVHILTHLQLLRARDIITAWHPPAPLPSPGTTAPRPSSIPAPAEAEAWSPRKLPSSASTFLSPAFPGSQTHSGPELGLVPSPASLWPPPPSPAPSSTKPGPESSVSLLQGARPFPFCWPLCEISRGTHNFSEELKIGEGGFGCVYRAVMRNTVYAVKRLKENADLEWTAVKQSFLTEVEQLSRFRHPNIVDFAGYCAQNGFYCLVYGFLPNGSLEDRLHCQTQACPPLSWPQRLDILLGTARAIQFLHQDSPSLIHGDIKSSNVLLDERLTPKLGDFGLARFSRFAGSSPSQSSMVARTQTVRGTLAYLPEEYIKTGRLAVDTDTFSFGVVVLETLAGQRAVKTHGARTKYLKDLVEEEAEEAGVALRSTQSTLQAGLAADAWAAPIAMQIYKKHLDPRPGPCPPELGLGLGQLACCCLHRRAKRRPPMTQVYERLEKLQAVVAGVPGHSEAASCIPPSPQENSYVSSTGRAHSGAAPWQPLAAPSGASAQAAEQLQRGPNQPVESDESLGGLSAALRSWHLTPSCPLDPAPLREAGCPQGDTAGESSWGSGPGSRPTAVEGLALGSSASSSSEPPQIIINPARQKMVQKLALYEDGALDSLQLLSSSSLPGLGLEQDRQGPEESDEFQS
T4 sequence (P49674 whole entry): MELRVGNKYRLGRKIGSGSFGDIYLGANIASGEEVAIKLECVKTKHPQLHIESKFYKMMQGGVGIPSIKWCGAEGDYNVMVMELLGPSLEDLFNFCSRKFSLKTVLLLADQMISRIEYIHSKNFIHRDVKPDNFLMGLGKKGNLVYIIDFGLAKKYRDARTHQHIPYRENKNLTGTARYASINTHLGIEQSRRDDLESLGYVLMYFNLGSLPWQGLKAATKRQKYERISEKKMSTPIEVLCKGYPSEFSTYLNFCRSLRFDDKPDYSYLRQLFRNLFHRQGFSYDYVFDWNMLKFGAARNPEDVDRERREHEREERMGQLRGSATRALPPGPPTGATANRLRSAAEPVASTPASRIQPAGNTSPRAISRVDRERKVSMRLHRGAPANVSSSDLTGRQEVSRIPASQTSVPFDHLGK
T6 sequence (Q05513 184-592): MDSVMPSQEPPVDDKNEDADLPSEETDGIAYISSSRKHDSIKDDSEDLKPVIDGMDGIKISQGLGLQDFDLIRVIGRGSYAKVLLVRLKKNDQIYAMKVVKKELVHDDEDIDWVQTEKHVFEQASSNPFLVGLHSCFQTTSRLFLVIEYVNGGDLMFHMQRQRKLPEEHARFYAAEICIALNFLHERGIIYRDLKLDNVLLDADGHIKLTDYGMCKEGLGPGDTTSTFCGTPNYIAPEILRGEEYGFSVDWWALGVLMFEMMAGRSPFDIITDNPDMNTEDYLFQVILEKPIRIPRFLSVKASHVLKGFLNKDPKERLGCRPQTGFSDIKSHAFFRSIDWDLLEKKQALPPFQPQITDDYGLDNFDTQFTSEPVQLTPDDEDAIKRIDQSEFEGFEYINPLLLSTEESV
T1 sequence (Q16539 whole entry): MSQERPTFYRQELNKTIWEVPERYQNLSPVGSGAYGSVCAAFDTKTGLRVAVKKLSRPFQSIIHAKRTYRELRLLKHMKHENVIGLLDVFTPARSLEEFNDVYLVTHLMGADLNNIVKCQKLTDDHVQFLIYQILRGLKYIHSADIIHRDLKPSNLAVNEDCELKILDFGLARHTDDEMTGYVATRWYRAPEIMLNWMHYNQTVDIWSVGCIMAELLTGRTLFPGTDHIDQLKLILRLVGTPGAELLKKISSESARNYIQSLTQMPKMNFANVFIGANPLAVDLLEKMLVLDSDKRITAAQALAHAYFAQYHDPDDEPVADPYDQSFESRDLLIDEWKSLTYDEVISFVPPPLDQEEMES

## CNC(=O)c1ccc2c(c1)C(=O)c1ccc(Nc3ccc(F)c(NC(=O)C4CC4)c3)cc1CC2 [Compound 2015]
[1]
  p38α–MK2-mediated phosphorylation of Wee1 at S642 (in words): blocked
[2]; healthy human colon organoids SCC311, 2015 0,5 µM
  viability at 5 µM: 96%
[2]; healthy human colon organoids SCC311, 2015 0,25 µM
  viability at 25 µM: 113%
[3]; 2015 0,5 µM, 5 µM
  Cell viability (%): 94.54% and 77.32%
[3]; 2015 0,25 µM, 25 µM
  Cell viability (%): 97.45% and 99.37%
[3]; 2015 1 µM
  Cell viability (%): 74.60% and 77.39% and 95.83%
[3]; SCC311, 4 d
  response of healthy human colon culture (in words): only a very weak response
[4]; 2015 0,5 µM, 5 µM
  Cell viability (%): 115.51% and 112.50%
[4]; 2015 0,25 µM, 25 µM
  Cell viability (%): 100.29% and 98.19%
[4]; 2015 1 µM
  Cell viability (%): 83.04% and 75.31%
[4]; SCC321, 4 d
  response of healthy human colon culture (in words): only a very weak response
[5]; 0.2 µM 2015, read-out: PKA residual activity
  remaining activity at 0.2 µM: 124%
[5]; 1 µM 2015, read-out: PKA residual activity
  remaining activity at 1 µM: 97.7%
[5]; PKA, 0.2 µM, read-out: residual activity
  remaining activity at 0.2 µM: 124%
[5]; PKA, 1 µM, read-out: residual activity
  remaining activity at 1 µM: 97.8%
[6]; 0.2 µM 2015, read-out: TGFBR2 residual activity
  remaining activity at 0.2 µM: 78.4%
[6]; 1 µM 2015, read-out: TGFBR2 residual activity
  remaining activity at 1 µM: 76.8%
[6]; TGFBR2, 0.2 µM, read-out: residual activity
  remaining activity at 0.2 µM: 78.3%
[6]; TGFBR2, 1 µM, read-out: residual activity
  remaining activity at 1 µM: 76.8%
[7]; 0.2 µM 2015, read-out: CK1epsilon residual activity
  remaining activity at 0.2 µM: 114%
[7]; 1 µM 2015, read-out: CK1epsilon residual activity
  remaining activity at 1 µM: 111%
[7]; CK1epsilon, 0.2 µM, read-out: residual activity
  remaining activity at 0.2 µM: 114%
[7]; CK1epsilon, 1 µM, read-out: residual activity
  remaining activity at 1 µM: 111%
[8]; 0.2 µM 2015, read-out: IRAK1 residual activity
  remaining activity at 0.2 µM: 108%
[8]; 1 µM 2015, read-out: IRAK1 residual activity
  remaining activity at 1 µM: 94.2%
[8]; IRAK1, 0.2 µM, read-out: residual activity
  remaining activity at 0.2 µM: 108%
[8]; IRAK1, 1 µM, read-out: residual activity
  remaining activity at 1 µM: 94.2%
[9]; 0.2 µM
  remaining activity at 0.2 µM: 106%
[9]; 1 µM
  remaining activity at 1 µM: 102%
[10]; 0.2 µM 2015, read-out: MST2 residual activity
  remaining activity at 0.2 µM: 115%
[10]; 1 µM 2015, read-out: MST2 residual activity
  remaining activity at 1 µM: 106%
[10]; MST2, 0.2 µM, read-out: residual activity
  remaining activity at 0.2 µM: 115%
[10]; MST2, 1 µM, read-out: residual activity
  remaining activity at 1 µM: 106%
[11]; 0.2 µM 2015, read-out: SRMS residual activity
  remaining activity at 0.2 µM: 96.9%
[11]; 1 µM 2015, read-out: SRMS residual activity
  remaining activity at 1 µM: 98.5%
[11]; SRMS, 0.2 µM, read-out: residual activity
  remaining activity at 0.2 µM: 96.9%
[11]; SRMS, 1 µM, read-out: residual activity
  remaining activity at 1 µM: 98.5%
